The IC50 is the midpoint of a concentration-inhibition curve. Lower therefore signals greater potency in that assay. Broadly, the inhibition is the percentage by which the read-out fell short of the control. A lower inhibition goes with little suppression.

Experiment [1] deals with T1, Thromboxane A2 receptor (Homo sapiens, UniProt P21731).
T1 sequence (P21731 whole entry): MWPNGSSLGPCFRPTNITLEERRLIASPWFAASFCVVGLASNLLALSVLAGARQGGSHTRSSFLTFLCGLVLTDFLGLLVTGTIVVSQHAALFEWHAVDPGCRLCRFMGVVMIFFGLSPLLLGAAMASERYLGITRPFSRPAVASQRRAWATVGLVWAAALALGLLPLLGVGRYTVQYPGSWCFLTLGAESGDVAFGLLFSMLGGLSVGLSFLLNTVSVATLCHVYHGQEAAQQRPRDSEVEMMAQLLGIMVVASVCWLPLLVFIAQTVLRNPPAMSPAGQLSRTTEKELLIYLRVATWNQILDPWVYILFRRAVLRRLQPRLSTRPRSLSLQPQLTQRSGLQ
Put plainly: Tested for thromboxane antagonist potency (pA2) against […] induced platelet aggregation using human platelet rich plasma. It counts as functional, cell-free. Conditions: read-out: pA2 (converted); call rule not given here.

Experiment [2] addresses T2, Thromboxane-A synthase (Homo sapiens, UniProt P24557).
T2 sequence (P24557 whole entry): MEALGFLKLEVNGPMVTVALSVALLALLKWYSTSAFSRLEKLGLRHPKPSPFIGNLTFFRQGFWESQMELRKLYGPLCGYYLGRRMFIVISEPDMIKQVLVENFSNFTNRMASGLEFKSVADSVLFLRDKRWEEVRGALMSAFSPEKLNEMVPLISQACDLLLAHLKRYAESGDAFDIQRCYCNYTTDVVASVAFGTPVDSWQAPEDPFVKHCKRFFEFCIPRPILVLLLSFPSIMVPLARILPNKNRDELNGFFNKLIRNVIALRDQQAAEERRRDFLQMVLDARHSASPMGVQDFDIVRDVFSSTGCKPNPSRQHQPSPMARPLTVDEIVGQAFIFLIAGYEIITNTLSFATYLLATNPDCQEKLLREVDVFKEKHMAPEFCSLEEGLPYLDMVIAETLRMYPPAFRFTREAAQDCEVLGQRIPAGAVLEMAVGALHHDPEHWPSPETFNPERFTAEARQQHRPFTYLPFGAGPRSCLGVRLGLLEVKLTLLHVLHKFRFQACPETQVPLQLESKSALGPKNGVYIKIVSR
Put plainly: Human microsomal Thromboxane synthase inhibition was determined by inhibiting TXB2 formation from [14C]- labelled arachidonic acid.

The target of experiment [3] is T2, Thromboxane-A synthase. Put plainly: Human microsomal Thromboxane synthase inhibition was determined by inhibiting TXB2 formation from [14C]- labelled arachidonic acid; Not active.
The target in experiment [4] is T3, Thromboxane A2 receptor (Rattus norvegicus) (UniProt P34978).
T3 sequence (whole entry): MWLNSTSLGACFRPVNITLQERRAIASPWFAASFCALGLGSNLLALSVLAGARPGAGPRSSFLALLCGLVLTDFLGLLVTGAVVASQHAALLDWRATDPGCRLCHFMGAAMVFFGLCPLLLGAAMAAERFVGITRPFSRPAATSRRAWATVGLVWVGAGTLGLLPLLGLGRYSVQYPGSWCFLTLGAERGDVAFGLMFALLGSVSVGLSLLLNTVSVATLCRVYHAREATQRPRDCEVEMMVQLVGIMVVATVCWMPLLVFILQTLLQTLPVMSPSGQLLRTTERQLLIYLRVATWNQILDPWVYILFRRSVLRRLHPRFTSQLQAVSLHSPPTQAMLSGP
Put plainly: Compound was tested for in vivo inhibition of thromboxane-A2 receptor inhibition 3 hr after administration of 10 mg/kg orally to rat. Type of experiment: organism-based. Further details: dose 10 mg/kg. Conditions: at 10 mg/kg.

The target of experiment [5] is T3, Thromboxane A2 receptor (Rattus norvegicus). The experiment in a line: Compound was tested for in vivo inhibition of thromboxane-A2 receptor inhibition 5 hr after administration of 10 mg/kg orally to rat. It counts as organism-based. Details: dose 10 mg/kg. As to conditions: at 10 mg/kg.
Experiment [6] has the same target. The experiment in a line: Compound was tested for in vivo inhibition of thromboxane A2 receptor inhibition 1 hr after administration of 10 mg/kg orally to rat. Details: dose 10 mg/kg. It counts as organism-based. Conditions: at 10 mg/kg.

Each structure is given as a SMILES string.

With `O=C(O)CC1CCCc2c1n(Cc1cccc(OCCCCC#Cc3cccnc3)c1)c1ccc(F)cc21` (stereo not drawn), the Kb in experiment [1] is 2510 nM. Half-maximal inhibition in experiment [2] (IC50) required 40 nM.
As to `O=C(O)CC1CCCc2c1n(Cc1cccnc1)c1ccc(F)cc21` (stereo not drawn), in experiment [1], the Kb was 3160 nM. Further, in experiment [3], the IC50 result is reported as “Not Active”.
In the case of `O=C(O)CC1CCCc2c1n(Cc1cccc(OCCC/C=C\c3cccnc3)c1)c1ccc(F)cc21` (stereo not drawn), in experiment [1], the Kb was 631 nM. Besides, in experiment [2], the IC50 was 200 nM.
The corresponding values for `O=C(O)CC1CCCc2c1n(Cc1ccc(OCCCCC#Cc3cccnc3)cc1)c1ccc(F)cc21` (stereo not drawn) are 200 nM and 400 nM.
The corresponding values for `O=C(O)CC1CCCc2c1n(Cc1cccc(CCCCCc3cccnc3)c1)c1ccc(F)cc21` (stereo not drawn) are 3980 nM and 500 nM.
For the compound `O=C(O)CC1CCCc2c1n(Cc1ccc(Cl)cc1)c1ccc(F)cc21` (stereo not drawn), in experiment [1], the Kb was 79.4 nM. Further, the IC50 result in experiment [3] was “Not Active”.
As to `O=C(O)CC1CCCc2c1n(Cc1cccc(OCCCCc3cccnc3)c1)c1ccc(F)cc21` (stereo not drawn), the Kb in experiment [1] was 501 nM. In addition, in experiment [2], half-maximal inhibition (IC50) was put at 100 nM.
For `O=C(O)CC1CCCc2c1n(Cc1cccc(OCCCCCc3cccnc3)c1)c1ccc(F)cc21` (stereo not drawn) the same measures were 3160 nM and 300 nM.
In the case of `O=C(O)CC1CCCc2c1n(Cc1cccc(OCCCC#Cc3cccnc3)c1)c1ccc(F)cc21` (stereo not drawn), the inhibition is 77% in experiment [4], 71% in experiment [5] and 86% in experiment [6]. The Kb in experiment [1] was 1000 nM. Besides, the IC50 in experiment [2] worked out at 50 nM.
Turning to `O=C(O)CC1CCCc2c1n(Cc1ccc(OCCCC#Cc3cccnc3)cc1)c1ccc(F)cc21` (stereo not drawn), in experiment [1], the Kb is 158 nM. In experiment [2], this compound had an IC50 of 600 nM.

(Values after ChEMBL document CHEMBL1126467, “Discovery of dual activity molecules with thromboxane antagonist and thromboxane synthase inhibitory activity” (Bioorg Med Chem Lett, 1992).)
